± gives the expanded uncertainty stated by the source.
What was measured:
[1] = Liquid; for mass density: Vibrating tube method; for vapor or sublimation pressure: Ebulliometric method (Recirculating still)
[2] = molar heat capacity at saturation pressure; details: Liquid

With `c1ccc2c(c1)ccc1cccnc12` [benzo[h]quinoline] as the molecule, how does the mass density ([1]; 348.13 K) read?
The mass density was 1121.1 ± 0.11 kg/m3.

And the mass density ([1]; 373.12 K)?
Its mass density is 1104.9 ± 0.11 kg/m3.

And the mass density ([1]; 398.12 K)?
The mass density was 1087.2 ± 0.1 kg/m3.

What about the mass density ([1]; 423.11 K) of the same molecule?
Its mass density is 1068.1 ± 0.1 kg/m3.

What about the mass density ([1]; 448.11 K) of the same molecule?
The mass density was 1051.1 ± 0.1 kg/m3.

What about the mass density ([1]; 473.11 K) of the same molecule?
Its mass density is 1030.8 ± 0.1 kg/m3.

And the mass density ([1]; 498.11 K)?
Its mass density is 1011.6 ± 0.1 kg/m3.

What about the mass density ([1]; 523.11 K) of the same molecule?
Its mass density is 992.8 ± 0.12 kg/m3.

And the molar heat capacity ([2]; 400 K)?
The molar heat capacity was 307.8 ± 3.1 J/K/mol.

What about the molar heat capacity ([2]; 410 K) of the same molecule?
Its molar heat capacity is 312.9 ± 3.2 J/K/mol.

What about the molar heat capacity ([2]; 420 K) of the same molecule?
Its molar heat capacity is 317.9 ± 3.2 J/K/mol.

And the molar heat capacity ([2]; 430 K)?
The molar heat capacity was 323.1 ± 3.2 J/K/mol.

What about the molar heat capacity ([2]; 440 K) of the same molecule?
Its molar heat capacity is 328.2 ± 3.2 J/K/mol.

What about the molar heat capacity ([2]; 450 K) of the same molecule?
The molar heat capacity was 333.3 ± 3.3 J/K/mol.

What about the molar heat capacity ([2]; 460 K) of the same molecule?
Its molar heat capacity is 338.4 ± 3.4 J/K/mol.

And the molar heat capacity ([2]; 470 K)?
Its molar heat capacity is 343.5 ± 3.4 J/K/mol.

And the molar heat capacity ([2]; 480 K)?
Its molar heat capacity is 348.5 ± 3.5 J/K/mol.

And the molar heat capacity ([2]; 490 K)?
The molar heat capacity was 353.5 ± 3.6 J/K/mol.

And the molar heat capacity ([2]; 500 K)?
The molar heat capacity was 358.4 ± 3.6 J/K/mol.

And the molar heat capacity ([2]; 510 K)?
The molar heat capacity was 363.3 ± 3.7 J/K/mol.

And the molar heat capacity ([2]; 520 K)?
Its molar heat capacity is 368.1 ± 3.7 J/K/mol.

What about the molar heat capacity ([2]; 530 K) of the same molecule?
The molar heat capacity was 372.7 ± 3.7 J/K/mol.

And the molar heat capacity ([2]; 540 K)?
The molar heat capacity was 377.2 ± 3.7 J/K/mol.

And the molar heat capacity ([2]; 550 K)?
The molar heat capacity was 381.6 ± 3.8 J/K/mol.

What about the molar heat capacity ([2]; 560 K) of the same molecule?
The molar heat capacity was 385.8 ± 3.8 J/K/mol.

And the molar heat capacity ([2]; 570 K)?
Its molar heat capacity is 389.7 ± 3.9 J/K/mol.

And the molar heat capacity ([2]; 580 K)?
Its molar heat capacity is 393.4 ± 3.9 J/K/mol.

And the molar heat capacity ([2]; 590 K)?
The molar heat capacity was 396.9 ± 4 J/K/mol.

And the molar heat capacity ([2]; 600 K)?
The molar heat capacity was 400 ± 4 J/K/mol.

Which mass density ([1]; 423.11 K) does the source give for `c1ccc2c(c1)cnc1ccccc12` [phenanthridine] here?
Its mass density is 1081.8 ± 1.1 kg/m3.

What about the mass density ([1]; 448.11 K) of the same molecule?
Its mass density is 1062.7 ± 1.1 kg/m3.

And the mass density ([1]; 473.11 K)?
Its mass density is 1043.7 ± 1 kg/m3.

What about the “vapor or sublimation pressure” value ([1]; 473.89 K) of the same molecule?
Its value is 2 ± 0.01 kPa.

And the “vapor or sublimation pressure” value ([1]; 481.92 K)?
Its value is 2.666 ± 0.011 kPa.

What about the “vapor or sublimation pressure” value ([1]; 493.84 K) of the same molecule?
Its value is 4 ± 0.011 kPa.

And the mass density ([1]; 498.11 K)?
Its mass density is 1023.7 ± 1 kg/m3.

What about the “vapor or sublimation pressure” value ([1]; 502.72 K) of the same molecule?
The value was 5.333 ± 0.011 kPa.

What about the “vapor or sublimation pressure” value ([1]; 515.93 K) of the same molecule?
The value was 7.999 ± 0.012 kPa.

What about the mass density ([1]; 523.11 K) of the same molecule?
Its mass density is 1003.9 ± 1 kg/m3.

What about the “vapor or sublimation pressure” value ([1]; 525.85 K) of the same molecule?
The value was 10.67 ± 0.013 kPa.

And the “vapor or sublimation pressure” value ([1]; 533.86 K)?
Its value is 13.33 ± 0.014 kPa.

What about the “vapor or sublimation pressure” value ([1]; 542.18 K) of the same molecule?
The value was 16.66 ± 0.015 kPa.

What about the mass density ([1]; 548.11 K) of the same molecule?
The mass density was 983.7 ± 1 kg/m3.

What about the “vapor or sublimation pressure” value ([1]; 549.09 K) of the same molecule?
Its value is 19.93 ± 0.016 kPa.

What about the “vapor or sublimation pressure” value ([1]; 558.18 K) of the same molecule?
Its value is 25.02 ± 0.018 kPa.

And the “vapor or sublimation pressure” value ([1]; 567.34 K)?
Its value is 31.18 ± 0.02 kPa.

What about the “vapor or sublimation pressure” value ([1]; 576.54 K) of the same molecule?
The value was 38.56 ± 0.022 kPa.

What about the “vapor or sublimation pressure” value ([1]; 585.79 K) of the same molecule?
Its value is 47.38 ± 0.025 kPa.

And the “vapor or sublimation pressure” value ([1]; 595.1 K)?
The value was 57.82 ± 0.029 kPa.

And the “vapor or sublimation pressure” value ([1]; 604.47 K)?
The value was 70.12 ± 0.033 kPa.

And the “vapor or sublimation pressure” value ([1]; 613.89 K)?
Its value is 84.53 ± 0.038 kPa.

What about the “vapor or sublimation pressure” value ([1]; 623.35 K) of the same molecule?
The value was 101.33 ± 0.041 kPa.

What about the molar heat capacity ([2]; 400 K) of the same molecule?
The molar heat capacity was 314.5 ± 3.2 J/K/mol.

What about the molar heat capacity ([2]; 410 K) of the same molecule?
Its molar heat capacity is 319.1 ± 3.2 J/K/mol.

And the molar heat capacity ([2]; 420 K)?
Its molar heat capacity is 323.8 ± 3.2 J/K/mol.

And the molar heat capacity ([2]; 430 K)?
The molar heat capacity was 328.3 ± 3.2 J/K/mol.

What about the molar heat capacity ([2]; 440 K) of the same molecule?
Its molar heat capacity is 332.9 ± 3.3 J/K/mol.

And the molar heat capacity ([2]; 450 K)?
The molar heat capacity was 337.4 ± 3.4 J/K/mol.

And the molar heat capacity ([2]; 460 K)?
Its molar heat capacity is 341.8 ± 3.4 J/K/mol.

And the molar heat capacity ([2]; 470 K)?
Its molar heat capacity is 346.2 ± 3.5 J/K/mol.

What about the molar heat capacity ([2]; 480 K) of the same molecule?
Its molar heat capacity is 350.6 ± 3.5 J/K/mol.

What about the molar heat capacity ([2]; 490 K) of the same molecule?
Its molar heat capacity is 354.9 ± 3.6 J/K/mol.

What about the molar heat capacity ([2]; 500 K) of the same molecule?
Its molar heat capacity is 359.2 ± 3.6 J/K/mol.

What about the molar heat capacity ([2]; 510 K) of the same molecule?
The molar heat capacity was 363.4 ± 3.7 J/K/mol.

What about the molar heat capacity ([2]; 520 K) of the same molecule?
The molar heat capacity was 367.6 ± 3.7 J/K/mol.

What about the molar heat capacity ([2]; 530 K) of the same molecule?
The molar heat capacity was 371.7 ± 3.7 J/K/mol.

And the molar heat capacity ([2]; 540 K)?
Its molar heat capacity is 375.7 ± 3.7 J/K/mol.

And the molar heat capacity ([2]; 550 K)?
The molar heat capacity was 379.7 ± 3.8 J/K/mol.

And the molar heat capacity ([2]; 560 K)?
Its molar heat capacity is 383.7 ± 3.8 J/K/mol.

What about the molar heat capacity ([2]; 570 K) of the same molecule?
Its molar heat capacity is 387.6 ± 3.9 J/K/mol.

What about the molar heat capacity ([2]; 580 K) of the same molecule?
The molar heat capacity was 391.4 ± 3.9 J/K/mol.

And the molar heat capacity ([2]; 590 K)?
Its molar heat capacity is 395.2 ± 4 J/K/mol.

And the molar heat capacity ([2]; 600 K)?
Its molar heat capacity is 398.8 ± 4 J/K/mol.

Source: the NIST ThermoML archive (doi:10.1016/j.jct.2009.11.011)
